In patent publication US6737383B1, “Herbicidal oxadiazolidines” (priority 1999, dated 2004):

Key:
bedstraw = assay: Test B pre/postemergence bedstraw; format: in vivo, Galium aparine
Outline: (§1)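 Test chemicals in a non-phytotoxic solvent mixture with surfactant were sprayed preemergence onto planted seeds and postemergence onto plants 2 to 18 cm tall (1- to 4-leaf stage). After twelve to sixteen days in a greenhouse, injury was visually rated against untreated controls from 0 (no effect) to 10 (complete control).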

blackgrass = assay: Test B pre/postemergence blackgrass; format: in vivo, Alopecurus myosuroides
Outline: as §1

surinam grass = assay: Test B pre/postemergence surinam grass; format: in vivo, Brachiaria decumbens
Outline: as §1

cocklebur = assay: Test B pre/postemergence cocklebur; format: in vivo, Xanthium strumarium
Outline: as §1

corn = assay: Test B pre/postemergence corn; format: in vivo, Zea mays
Outline: as §1

morningglory = assay: Test B pre/postemergence morningglory; format: in vivo, Ipomoea hederacea
Outline: as §1

pigweed = assay: Test B pre/postemergence pigweed; format: in vivo, Amaranthus retroflexus
Outline: as §1

rape = assay: Test B pre/postemergence rape; format: in vivo, Brassica napus
Outline: as §1

velvetleaf = assay: Test B pre/postemergence velvetleaf; format: in vivo, Abutilon theophrasti
Outline: as §1

wheat = assay: Test B pre/postemergence wheat; format: in vivo, Triticum aestivum
Outline: as §1

wild oat = assay: Test B pre/postemergence wild oat; format: in vivo, Avena fatua
Outline: as §1

purple nutsedge = assay: Test B pre/postemergence purple nutsedge; format: in vivo, Cyperus rotundus
Outline: as §1

rice = assay: Test B flood test rice; format: in vivo, Oryza sativa
Outline: (§2)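 Flood test on plants grown to the 2-leaf stage; treated plants kept in greenhouse twelve to sixteen days, then visually rated against controls on a 0 (no effect) to 10 (complete control) scale.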

smallflower flatsedge = assay: Test B flood test smallflower flatsedge; format: in vivo, Cyperus difformis
Outline: as §2

duck salad = assay: Test B flood test duck salad; format: in vivo, Heteranthera limosa
Outline: as §2

bamyardgrass = assay: Test B flood test barnyardgrass; format: in vivo, Echinochloa crus-galli
Outline: as §2

[1] = Postemergence, Rate 62 g/ha, scale 0 to 10, 0 is no effect, 10 is complete control
[2] = Postemergence, Rate 250 g/ha, scale 0 to 10, 0 no effect, 10 complete control
[3] = Preemergence, Rate 62 g/ha, scale 0 to 10, 0 is no effect, 10 is complete control
[4] = Preemergence, Rate 125 g/ha, scale 0 to 10 (0 no effect, 10 complete control)
[5] = Preemergence, Rate 250 g/ha, scale of 0 to 10 where 0 is no effect and 10 is complete control
[6] = Preemergence, Rate 500 g/ha, scale 0 (no effect) to 10 (complete control)
[7] = Rate 125 g/ha, Postemergence, scale 0 to 10, 0 no effect, 10 complete control
[8] = Rate 500 g/ha, Postemergence, 0 to 10 scale (0 no effect, 10 complete control)
[9] = Rate 31 g/ha, Postemergence section (flood test species), scale 0 to 10
[10] = Rate 125 g/ha, Postemergence section (flood test species), scale 0 to 10, 0 no effect, 10 complete control
[11] = flood test, listed under Postemergence, Rate 250 g/ha, scale 0 to 10, 0 no effect, 10 complete control

CC(C)N(C(=O)n1oc(=O)n(-c2ccccc2OC(F)(F)F)c1=O)c1ccc(F)cc1 [Compound 14]
Bedstraw plant response rating (bedstraw; [1]): 0
Bedstraw plant response rating (bedstraw; [2]): 0
Plant response rating, Bedstraw (bedstraw; [3]): 0
Plant response rating, Bedstraw (bedstraw; [4]): 0
Plant response rating, Bedstraw (bedstraw; [5]): 0
Bedstraw plant response rating (bedstraw; [6]): 4
Bedstraw plant response rating (bedstraw; [7]): 0
Bedstraw plant response rating (bedstraw; [8]): 1
Blackgrass plant response rating (blackgrass; [1]): 0
Blackgrass plant response rating (blackgrass; [2]): 0
Plant response rating, Blackgrass (blackgrass; [3]): 0
Plant response rating, Blackgrass (blackgrass; [4]): 0
Plant response rating, Blackgrass (blackgrass; [5]): 0
Blackgrass plant response rating (blackgrass; [6]): 2
Blackgrass plant response rating (blackgrass; [7]): 0
Blackgrass plant response rating (blackgrass; [8]): 3
B. signalgrass plant response rating (surinam grass; [1]): 0
B. signalgrass plant response rating (surinam grass; [2]): 0
Plant response rating, B. signalgrass (surinam grass; [3]): 0
Plant response rating, B. signalgrass (surinam grass; [4]): 0
Plant response rating, B. signalgrass (surinam grass; [5]): 0
B. signalgrass plant response rating (surinam grass; [6]): 2
B. signalgrass plant response rating (surinam grass; [7]): 0
B. signalgrass plant response rating (surinam grass; [8]): 0
Cocklebur plant response rating (cocklebur; [1]): 0
Cocklebur plant response rating (cocklebur; [2]): 0
Plant response rating, Cocklebur (cocklebur; [3]): 0
Plant response rating, Cocklebur (cocklebur; [4]): 0
Plant response rating, Cocklebur (cocklebur; [5]): 0
Cocklebur plant response rating (cocklebur; [6]): 0
Cocklebur plant response rating (cocklebur; [7]): 0
Cocklebur plant response rating (cocklebur; [8]): 0
Corn plant response rating (corn; [1]): 0
Corn plant response rating (corn; [2]): 0
Plant response rating, Corn (corn; [3]): 0
Plant response rating, Corn (corn; [4]): 0
Plant response rating, Corn (corn; [5]): 0
Corn plant response rating (corn; [6]): 4
Corn plant response rating (corn; [7]): 0
Corn plant response rating (corn; [8]): 0
Morningglory plant response rating (morningglory; [1]): 1
Morningglory plant response rating (morningglory; [2]): 4
Plant response rating, Morningglory (morningglory; [3]): 0
Plant response rating, Morningglory (morningglory; [4]): 0
Plant response rating, Morningglory (morningglory; [5]): 0
Morningglory plant response rating (morningglory; [6]): 0
Morningglory plant response rating (morningglory; [7]): 2
Morningglory plant response rating (morningglory; [8]): 6
Redroot pigweed plant response rating (pigweed; [1]): 0
Redroot pigweed plant response rating (pigweed; [2]): 3
Plant response rating, Redroot pigweed (pigweed; [3]): 0
Plant response rating, Redroot pigweed (pigweed; [4]): 0
Plant response rating, Redroot pigweed (pigweed; [5]): 0
Redroot pigweed plant response rating (pigweed; [6]): 6
Redroot pigweed plant response rating (pigweed; [7]): 2
Redroot pigweed plant response rating (pigweed; [8]): 6
Rape plant response rating (rape; [1]): 0
Rape plant response rating (rape; [2]): 0
Plant response rating, Rape (rape; [3]): 0
Plant response rating, Rape (rape; [4]): 0
Plant response rating, Rape (rape; [5]): 0
Rape plant response rating (rape; [6]): 0
Rape plant response rating (rape; [7]): 0
Rape plant response rating (rape; [8]): 0
Velvetleaf plant response rating (velvetleaf; [1]): 0
Velvetleaf plant response rating (velvetleaf; [2]): 0
Plant response rating, Velvetleaf (velvetleaf; [3]): 0
Plant response rating, Velvetleaf (velvetleaf; [4]): 0
Plant response rating, Velvetleaf (velvetleaf; [5]): 0
Velvetleaf plant response rating (velvetleaf; [6]): 0
Velvetleaf plant response rating (velvetleaf; [7]): 0
Wheat plant response rating (wheat; [1]): 0
Wheat plant response rating (wheat; [2]): 0
Plant response rating, Wheat (wheat; [3]): 0
Plant response rating, Wheat (wheat; [4]): 0
Plant response rating, Wheat (wheat; [5]): 0
Wheat plant response rating (wheat; [6]): 0
Wheat plant response rating (wheat; [7]): 0
Wild oats plant response rating (wild oat; [1]): 0
Wild oats plant response rating (wild oat; [2]): 0
Plant response rating, Wild oats (wild oat; [4]): 0
Plant response rating, Wild oats (wild oat; [5]): 0
Wild oats plant response rating (wild oat; [6]): 0
Wild oats plant response rating (wild oat; [7]): 0
Nutsedge plant response rating (purple nutsedge; [1]): 0
Nutsedge plant response rating (purple nutsedge; [2]): 0
Plant response rating, Nutsedge (purple nutsedge; [3]): 0
Plant response rating, Nutsedge (purple nutsedge; [4]): 0
Plant response rating, Nutsedge (purple nutsedge; [5]): 0
Nutsedge plant response rating (purple nutsedge; [6]): 0
Nutsedge plant response rating (purple nutsedge; [7]): 0
Nutsedge plant response rating (purple nutsedge; [8]): 0
Rice plant response rating (rice; [1]): 0
Rice plant response rating (rice; [9]): 0
Rice plant response rating (rice; [10]): 0
Rice plant response rating (rice; [11]): 0
S. Flatsedge plant response rating (smallflower flatsedge; [1]): 0
S. Flatsedge plant response rating (smallflower flatsedge; [10]): 0
S. Flatsedge plant response rating (smallflower flatsedge; [11]): 0
Ducksalad plant response rating (duck salad; [1]): 0
Ducksalad plant response rating (duck salad; [9]): 0
Ducksalad plant response rating (duck salad; [10]): 0
Ducksalad plant response rating (duck salad; [11]): 0
Barnyardgrass plant response rating (bamyardgrass; [1]): 0
Barnyardgrass plant response rating (bamyardgrass; [9]): 0
Barnyardgrass plant response rating (bamyardgrass; [10]): 0
Barnyardgrass plant response rating (bamyardgrass; [11]): 0
